The test system of assay [1] is Panc-1 cells. Description: Cell death in Panc-1 pancreatic cancer cells. Type of assay: cell-based. The procedure:
(§1) FIGS. 3A-3H show synergistic anti-tumor effects of C6-ceramide and gemcitabine in vivo and in vitro. SCID/Beige/Taconic nude male mice (22-25 g; 6-8 weeks old) were ear tagged and randomized into 4 different groups (Control, Ceramide, gemcitabine, Ceramide+gemcitabine) combining 5 mice each prior to inoculation subcutaneous (s.c.) with 2×10^6 L3.6 cells in a 0.1 ml volume into the internal surface of the right thigh. Treatment was started 4 days after L3.6 cell injection with thrice weekly (3×/wk) intraperitoneal (i.p.) injections of gemcitabine (two doses: 5.0 and 10.0 mg/ml) with or without C6-ceramide (10 mg/ml) for 2 weeks. Mouse survival (FIGS. 3A, 3B, and 3E) and tumor volume (in cm^3; FIGS. 3C and 3D) were recorded (FIG. 3E). […] Mitomycin C was always present in the media to prevent cell proliferation from occurring. The data represent the mean±SD of at least triplicate experiments. *P<0.05 versus group without C6-ceramide presents. The experiments were repeated at least three times and similar results were observed.
(§2) Cell viability was measured by the 3-[4m5-dimethylthylthiazol-2-y]-2.5 diphenyltetrazolium bromide (MTT) method, as described in Cao et al. (2009) Sci. Signal, 2:RA17. Briefly, the cells were collected and seeded in 96-well plate at a density of 2×10^5 cells/cm^2. Different seeding densities were optimized at the beginning of the experiments. […] The medium was subsequently aspirated from each well and 150 ul of DMSO (Sigma, St. Louis, Mo.) was added to dissolve formazan crystals and the absorbance of each well was obtained using a Dynatech MR5000 plate reader at a test wavelength of 490 nm with a reference wavelength of 630 nm.
(§3) The possible combination effect of C6-ceramide on gemcitabine-induced cytotoxicity (in vitro) and regression (in vivo) of the L3.6 pancreatic cancer cell was also tested according to the methods described in Examples 2 and 3. […] A synergistic anti-tumor effect of gemcitabine and C6-ceramide in multiple pancreatic cancer cells in vitro was also determined.

Assay [2] has as its system MIA-PaCa2 cells. Description: Cell death in MIA-PaCa2 pancreatic cancer cells. Type of assay: cell-based. The procedure: as §1, §2, §3
The subject of assay [3] is AKT/mTORC1. The experiment in a line: Western Blot of AKT/mTORC1 activation in L3.6 cells. The assay is classed as cell-based. The note with it: for PI3K/AKT/mTOR activation: Taxol alone. The procedure: (§4) Pancreatic cancer cell lines L3.6 cells were left untreated or treated with gemcitabine (Gem, 1 μg/ml) or taxol (1.5 μg/ml) in the presence or absence of C6-ceramide (10 μg/ml) for 2, 4 and 6 hours, AKT/mTORC1 and ERK activation were detected by Western Blot using indicated antibodies (FIGS. 5A and 5C). p-AKT (S473) and p-ERK at 4 hour time intervals for each treatment quantified (FIGS. 5B and 5D). L3.6 cells were pretreated with various inhibitors including PI3K/AKT inhibitor LY 294002 (LY, 1 μM), mTORC1 inhibitor rapamycin (100 nM), MEK/ERK inhibitor U0126 (1 μg/ml) or gemcitabine (1 μg/ml) for 48 hours, cell death was detected 48 hours later (FIG. 5E).
(§5) As described in Cao et al. (2009) Sci. Signal, 2:RA17, aliquots of 30-40 μg of protein from each sample (treated as indicated in the legends) were separated by 10% SDS-polyacrylamide gel electrophoresis (SDS-PAGE) and transferred onto a polyvinylidene difluoride (PVDF) membrane (Millipore, Bedford, Mass.). After blocking with 10% instant nonfat dry milk for 1 hour, membranes were incubated with specific antibodies overnight at 4° C. followed by incubation with secondary antibodies (HRP-conjugated anti-rabbit or anti-mouse IgG at the appropriate dilutions) for 60 minutes to 1 hour at room temperature. Antibody binding was detected with the enhanced chemiluminescence (ECL) detection system (Amersham Biosciences, Piscataway, N.J.).
For orientation: In western blotting, separated proteins are transferred to a membrane and probed.

Assay [4] has as its system ERK. Description: Western Blot of ERK activation in L3.6 cells. Type of assay: cell-based. The procedure: as §4, §5
Assay [5] deals with L3.6 pancreatic cancer cells. The experiment in a line: Cell viability / cell death (MTT) in L3.6 pancreatic cancer cells. Type of assay: cell-based, human. The note with it: gemcitabine 1.5 μg/ml.
Assay [6] relates to Gab1. The experiment in a line: Gab1 activation in wildtype and Gab1 knockout MEFs. The assay is classed as cell-based. The note with it: wildtype vs Gab1 knockout MEFs. An excerpt:
One of the most studied scaffold proteins for AKT activation is Gab1. Physical association between p85 and Gab1 is crucial in mediating the PI3K/AKT signaling pathway induced by a variety of stimuli. […] It is believed that that Gab1 is a key adaptor for taxol and gemcitabine induced PI3K/AKT/mTOR activation and chemoresistance response. To confirm this rationale, wildtype and Gab1 knockout MEFs and Gab1 siRNA can be used to test taxol and gemcitabine induced PI3K/AKT/mTOR and cell death. Interaction between Gab1 and p85 after Taxol and Gemcitabine treatment can also be tested in L3.6 cells.

The structures appear in SMILES notation. Entries after “also recorded” stand apart in the source; their conditions may differ.

On to `CCCCCCCCCCCCC/C=C/[C@@H](O)[C@H](CO)NC(=O)CCCCC` [C6-ceramide, N-hexanoyl-D-sphingosine], for which the sensitization to cetuximab entry in assay [1] (PANC-1, activating KRAS mutation) is “markedly sensitized”; in assay [2] (MIA PaCa-2, activating KRAS mutation), “markedly sensitized”. The cancer cell death result in assay [1] (Panc-1, gemcitabine 1.5 μg/ml) was “moderate effect”; in assay [2] (MIA cells, gemcitabine 1.5 μg/ml) it was “moderate effect”; in assay [5], “moderate effect”. The “effect on taxol induced pro-survival PI3K/AKT/mTOR pathway” value in assay [3] (C6-ceramide added to taxol) is given as “dramatically reduces”. For the same compound, the “ERK activation / signaling” value in assay [4] (L3.6 cells, Western Blot) was “induced moderate survival of AKT/mTORC1 and ERK activation; also recorded: inhibited”.
For `CC(=O)O[C@H]1C(=O)[C@@]2(C)[C@H]([C@H](OC(=O)c3ccccc3)[C@]3(O)C[C@H](OC(=O)[C@H](O)[C@@H](NC(=O)c4ccccc4)c4ccccc4)C(C)=C1C3(C)C)[C@]1(OC(C)=O)CO[C@@H]1C[C@@H]2O` [paclitaxel], the PI3K/AKT/mTOR activation result in assay [3] is “no effect”; in assay [3] (listed as Taxol), “strongly induce”. Besides, the “effect on C6-ceramide induced AKT de-phosphorylation or inhibition” value in assay [3] (added to C6-ceramide) is “dramatically enhanced”. Further, in assay [4] (added to C6-ceramide), the “effect on C6-ceramide inhibition of ERK activation” value is “enhanced”. In addition, the Gab1 activation result in assay [6] is on record as “induces Gab1 activation in wildtype but not Gab1 knockout MEFs”.
